Here are results for 18 compounds from patent publication US20250313539A1, “Alpha, Beta-UNSATURATED AMIDE COMPOUND, AND PREPARATION METHOD THEREFOR, AND PHARMACEUTICAL COMPOSITION AND USE THEREOF” (SHANGHAI INSTITUTE OF MATERIA MEDICA, CHINESE ACADEMY OF …, priority 2022, published 2025).

The term AUC(0-inf) denotes the area under the concentration-time curve extrapolated to infinity. High values mean high exposure, low ones low exposure. What is called AUC(0-t) is exposure summed from dosing to a finite time, without extrapolation to infinity. As usually defined, the clearance is a measure of how efficiently the substance is removed, as volume per time. High values mean efficient removal, low ones inefficient removal. For orientation: half-life means how long it takes for the measured level to halve. Broadly, the Cmax is the maximum level reached in the sampled fluid or tissue. Usually Tmax stands for the time at which the peak concentration occurs. Usually bioavailability stands for dose-corrected exposure relative to a reference, in per cent.

Data set [1] relates to cerebral blood flow in mice. As to the kind of experiment: laser speckle test blood flow model, improvement of cerebral blood flow in mice. In kind it is in vivo. The following applies: injected intraperitoneally, within 60 minutes after administration vs before; for change in vivo at 20 mg/kg: dose of 20 mg/kg. From the text:
We used a laser speckle test blood flow model to test the activity of compounds in improving cerebral blood flow in mice. The principle is to measure the intensity changes of flowing blood through laser speckle technology, reflecting real-time cerebral blood flow; By comparing the changes in blood flow before and after administration in mice, the effect of compounds on improving blood flow can be detected.
The experimental mice were anesthetized for 30 seconds and fixed on a rack. After waiting for 2 minutes for the baseline light intensity data to stabilize, the brain blood flow light intensity data of the mice were recorded for 10 minutes without administration. Subsequently, the test compound was injected intraperitoneally and the cerebral blood flow and light intensity data of mice were recorded within 60 minutes after administration. Comparing the changes in light intensity before and after administration can reveal the degree of changes in cerebral blood flow in mice.
Through the laser speckle model mentioned above, we conducted preliminary tests on the activity of the compound in improving cerebral blood flow in mice. In this experiment, ferulic acid (FA) was used as a positive control. Multiple compounds have shown significant improvement effects on cerebral blood flow in this model. At a dose of 5 mg/kg, compound 9 can increase cerebral blood flow in mice by about 10%, and compound 16 can increase it by about 20%. At a dose of 20 mg/kg, compounds 30 and 59 increased mouse cerebral blood flow by about 10%, compounds 5, 6, 26, 28, 29, 35, 43, and 58 all increased mouse cerebral blood flow by about 20%, compounds 16, 57, and 86 increased mouse cerebral blood flow by about 30%, compounds 27, 84, and 104 increased it by about 40%, and compound 83 increased mouse cerebral blood flow by 50% to 60%. Overall, the patented compound has good development prospects.

Data set [2] in a line: pharmacokinetic parameters in mice (plasma, LC-MS/MS). The class given is in vivo, Male ICR (CD-1) mice. Conditions: male, ICR (CD-1), mouse; for MRT inf: read-out: MRT0-∞; for bioavailability: read-out: F (oral bioavailability). The method, then: Male ICR (CD-1) mice were divided into two groups, with three mice in each group. […] intravenously injected with 5 mg/kg of the test substance, blood was collected before administration, and 0.25 h, 0.5 h, 1 h, 2 h, 4 h, 8 h, and 24 hours after administration, respectively, and centrifuged immediately to obtain plasma, and the drug concentration in the plasma was determined using liquid chromatography tandem mass spectrometry.

Data set [3] is described as follows: drug concentration in brain tissue, plasma and CSF after oral administration in mice. The class given is in vivo. From the text: Compound 27 has good brain tissue drug distribution after oral administration in mice, with a B/P of approximately 0.7.
Where [4] appears, read: Mus musculus, ip, 1 h, read-out: increase of cerebral blood flow in mice.
Setting [5] is: PO 20 mg/kg, 15 min, individual animals 13-15.
[6] abbreviates: PO 20 mg/kg, 30 min, individual animals 16-18.

“And” between values parts separate entries of the source, which are not always exact repeats. Equal values may be shown once. Read-outs that look alike come from different tables or passages of the source.

As for `O=C(/C=C/c1ccccc1C(F)(F)F)N1C(=O)OC[C@@H]1Cc1ccccc1` [Example 58, (S, E)-4-benzyl-3-(3-(2-trifluoromethylphenyl)acryloyl)oxazolidin-2-one], the change in vivo at 20 mg/kg in data set [1] (setting [4]) was ~20%.
Still for that read-out and setting: the result for `[2H]C1([2H])OC(=O)N(C(=O)/C=C/c2ccccc2OC(F)(F)F)[C@H]1c1ccccc1` [Example 84, (S, E)-4-phenyl-3-(3-(2-trifluoromethoxyphenyl)acryloyl) oxazolidin-2-one-5,5-d2] reads ~40%.
Consider `[2H]C1([2H])OC(=O)N(C(=O)/C=C/c2ccccc2C(F)(F)F)[C@H]1c1ccccc1` [Example 83, (S, E)-4-phenyl-3-(3-(2-trifluoromethylphenyl)acryloyl)oxazolidin-2-one-5,5-d2], for which, in data set [1] (setting [4]), the change in vivo at 20 mg/kg was 50 to 60%. In data set [2] (iv-5 mg/kg), the area under the curve AUC(0-inf) is 2200 ng·h/mL, the area under the curve AUC(0-t) was 2170 ng·h/mL, the clearance turned out to be 37.8 mL/min/kg and the half-life was 1.56 h. The MRT inf in data set [2] (iv-5 mg/kg) worked out at 1.21 h. In addition, in data set [2] (po-10 mg/kg), the area under the curve AUC(0-inf) stood at 767 ng·h/mL, the exposure AUC(0-t) stood at 757 ng·h/mL, the concentration peaked (Cmax) at 116 ng/mL and the time of peak concentration (Tmax) is 1 h. Moreover, in data set [2] (po-10 mg/kg), the half-life was 4.08 h and the MRT inf was found to be 5.61 h. For the same compound, the bioavailability in data set [2] (po-10 mg/kg vs iv-5 mg/kg) was determined as 17.4%.
In the case of `O=C(/C=C/c1cccc(Oc2ccccc2)c1)N1CCOC1=O` [Example 16, (E)-3-(3-(3-phenoxyphenyl)acryloyl)oxazolidin-2-one], the change in vivo at 5 mg/kg in data set [1] (Mus musculus, ip, 1 h, dose of 5 mg/kg, read-out: increase of cerebral blood flow in mice) was ~20%. For the same compound, the change in vivo at 20 mg/kg in data set [1] (setting [4]) is ~30%.
Consider `O=C(/C=C/c1ccccc1C(F)(F)F)N1C(=O)OCC1c1ccccc1` (stereo not drawn) [Example 26, (E)-3-(3-(2-trifluoromethylphenyl)acryloyl)-4-phenyloxazolidin-2-one], for which, in data set [1] (setting [4]), the change in vivo at 20 mg/kg is ~20%.
The same measure, in the same setting: the result for `O=C(/C=C/c1ccccc1C(F)(F)F)N1C(=O)OCC1Cc1ccccc1` (stereo not drawn) [Example 57, (E)-4-benzyl-3-(3-(2-trifluoromethylphenyl)acryloyl)oxazolidin-2-one] reads ~30%.
Turning to `O=C(/C=C/c1ccccc1C(F)(F)F)N1C(=O)OC[C@@H]1c1ccccc1` [Example 27, (S, E)-3-(3-(2-trifluoromethylphenyl)acryloyl)-4-phenyloxazolidin-2-one], in data set [1] (setting [4]), the change in vivo at 20 mg/kg was ~40%. For the same compound, the AUC(0-inf) in data set [2] (iv-5 mg/kg) stood at 805 ng·h/mL; in data set [2] (po-20 mg/kg) it was 650 ng·h/mL. The exposure AUC(0-t) in data set [2] (iv-5 mg/kg) is 790 ng·h/mL; in data set [2] (po-20 mg/kg), 465 ng·h/mL. In data set [2] (iv-5 mg/kg), this compound yielded a clearance of 104 mL/min/kg. In addition, the figures for the half-life in data set [2] (iv-5 mg/kg) and in data set [2] (po-20 mg/kg) were 2.08 h and 4.01 h, respectively. Further, the values for the MRT inf in data set [2] (iv-5 mg/kg) and in data set [2] (po-20 mg/kg) were 1.04 h and 6.12 h, respectively. Also, the concentration in data set [2] (po-20 mg/kg) peaked (Cmax) at 104 ng/mL. The Tmax in data set [2] (po-20 mg/kg) was determined as 1 h. The bioavailability in data set [2] (po-20 mg/kg vs iv-5 mg/kg) is 14.7%. The concentration at 15 min in data set [3] (ICR (CD-1), mouse, brain, po, 20 mg/kg, PO 20 mg/kg, 15 min, mean, read-out: Brain) is 50.9 ng/g; in data set [3] (ICR (CD-1), mouse, heart plasma, po, 20 mg/kg, PO 20 mg/kg, 15 min, mean, read-out: Heart Plasma), 70.4 ng/mL; in data set [3] (ICR (CD-1), mouse, po, 20 mg/kg, PO 20 mg/kg, 15 min, mean, read-out: CSF), 3.8 ng/mL; in data set [3] (ICR (CD-1), mouse, portal vein plasma, po, 20 mg/kg, PO 20 mg/kg, 15 min, individual animals 13-15, read-out: Portal Vein Plasma), 320 ng/mL; in data set [3] (ICR (CD-1), mouse, portal vein plasma, po, 20 mg/kg, PO 20 mg/kg, 15 min, mean, read-out: Portal Vein Plasma), 371 ng/mL. Further, the concentration at 30 min was 43.7 ng/g in data set [3] (ICR (CD-1), mouse, brain, po, 20 mg/kg, PO 20 mg/kg, 30 min, mean, read-out: Brain); 61.9 ng/mL in data set [3] (ICR (CD-1), mouse, heart plasma, po, 20 mg/kg, PO 20 mg/kg, 30 min, mean, read-out: Heart Plasma); 3.2 ng/mL in data set [3] (ICR (CD-1), mouse, po, 20 mg/kg, PO 20 mg/kg, 30 min, mean, read-out: CSF); 373 ng/mL in data set [3] (ICR (CD-1), mouse, portal vein plasma, po, 20 mg/kg, PO 20 mg/kg, 30 min, mean, read-out: Portal Vein Plasma). Further, the Kp at 15 min in data set [3] (ICR (CD-1), mouse, brain/heart plasma, po, 20 mg/kg, PO 20 mg/kg, 15 min, individual animals 13-15, read-out: Brain/H. Plasma) is 0.7; in data set [3] (ICR (CD-1), mouse, brain/heart plasma, po, 20 mg/kg, PO 20 mg/kg, 15 min, mean, read-out: Brain/H. Plasma), 0.7; in data set [3] (ICR (CD-1), mouse, brain/plasma, po, 20 mg/kg, after oral administration in mice, read-out: B/P (brain tissue drug distribution)) it was ~0.7. The Kp at 30 min in data set [3] (ICR (CD-1), mouse, brain/heart plasma, po, 20 mg/kg, PO 20 mg/kg, 30 min, mean, read-out: Brain/H. Plasma) worked out at 0.7. Also, the Brain in data set [3] (setting [5]) was 29.4 ng/g and 75.4 ng/g and 47.9 ng/g; in data set [3] (setting [6]), 19.4 ng/g and 38.8 ng/g and 44.3 ng/g. Further, the “Brain/H. Plasma” value in data set [3] (setting [5]) is 0.65 and 0.91; in data set [3] (setting [6]) it was 0.56 and 1.37 and 0.49. The CSF in data set [3] (setting [5]) was 1.63 ng/mL and 8.37 ng/mL and 1.40 ng/mL; in data set [3] (setting [6]), 0.670 ng/mL and 0.770 ng/mL and 5.94 ng/mL. In addition, the “Heart Plasma” value in data set [3] (setting [5]) is 41.9 ng/mL and 117 ng/mL and 52.7 ng/mL; in data set [3] (setting [6]), 34.2 ng/mL and 28.2 ng/mL and 89.5 ng/mL. In addition, the “Portal Vein Plasma” value in data set [3] (setting [5]) is 375 ng/mL and 418 ng/mL; in data set [3] (setting [6]), 252 ng/mL and 171 ng/mL and 704 ng/mL.
As to `O=C(/C=C/c1ccccc1OC(F)(F)F)N1C(=O)OC[C@@H]1c1ccccc1` [Example 30, (S, E)-4-phenyl-3-(3-(2-(trifluoromethoxy)phenyl)acryloyl) oxazolidin-2-one], the change in vivo at 20 mg/kg in data set [1] (setting [4]) is ~10%.
Consider `O=C(/C=C/c1cccc(-c2ccccc2)c1)N1C(=O)OC[C@@H]1c1ccccc1` [Example 35, (S, E)-3-(3-([1,1′-biphenyl]-3-yl)acryloyl)-4-phenyloxazolidin-2-one], for which the change in vivo at 20 mg/kg in data set [1] (setting [4]) was ~20%.
In the case of `O=C(/C=C/c1cccc(OC(F)(F)F)c1)N1C(=O)OC[C@@H]1c1ccccc1` [Example 29, (S, E)-4-phenyl-3-(3-(3-(trifluoromethoxy)phenyl)acryloyl) oxazolidin-2-one], in data set [1] (setting [4]), the change in vivo at 20 mg/kg was ~20%.
Turning to `O=C(/C=C/c1ccc(C(F)(F)F)cc1)N1CCOC1=O` [Example 9], the “increase of cerebral blood flow in mice” value in data set [1] (dose of 5 mg/kg) is reported as “about 10%”.
On to `O=C(/C=C/c1ccc(F)cc1C(F)(F)F)N1C(=O)OC[C@@H]1c1ccccc1` [Example 43, (S, E)-3-(3-(4-fluoro-2-(trifluoromethyl)phenyl)acryloyl)-4-phenyloxazolidin-2-one], for which, in data set [1] (setting [4]), the change in vivo at 20 mg/kg was ~20%.
On the same count and under the same terms, with `[2H]C1([2H])OC(=O)N(C(=O)/C=C/c2cccc(-c3ccccc3)c2)[C@H]1c1ccccc1` [Example 86, (S, E)-3-(3-([1,1′-biphenyl]-3-yl)acryloyl)-4-phenyloxazolidin-2-one-5,5-d2] the figure was ~30%; with `[2H]C1([2H])OC(=O)N(C(=O)/C=C/c2ccccc2C(F)(F)F)C1Cc1ccccc1` (stereo not drawn) [Example 104, (E)-4-benzyl-3-(3-(2-trifluoromethylphenyl)acryloyl)oxazolidin-2-one-5,5-d2], ~40%; with `O=C(/C=C/c1ccccc1C(F)(F)F)N1C(=O)OC[C@H]1c1ccccc1` [Example 28, (R, E)-3-(3-(2-trifluoromethylphenyl)acryloyl)-4-phenyloxazolidin-2-one], ~20%.
Turning to `COc1ccc(/C=C/C(=O)N2CCOC2=O)cc1` [Example 6, (E)-3-(3-(4-methoxyphenyl)acryloyl)oxazolidin-2-one], the change in vivo at 20 mg/kg in data set [1] (setting [4]) was ~20%.
Same read-out and setting: the result for `O=C(/C=C/c1ccccc1C(F)(F)F)N1C(=O)OC[C@H]1Cc1ccccc1` [Example 59, (R, E)-4-benzyl-3-(3-(2-trifluoromethylphenyl)acryloyl)oxazolidin-2-one] reads ~10%; that for `COc1cccc(/C=C/C(=O)N2CCOC2=O)c1` [Example 5, (E)-3-(3-(3-methoxyphenyl)acryloyl)oxazolidin-2-one], ~20%.
